# In US20250195415A1, “BIODEGRADABLE CONTROLLED RELEASE ANTIVIRAL AGENT IMPLANTS” (Yale University, priority 2022, published 2025):
# pEC50: −log10 of the molar value. Like-named read-outs stand apart in the source and are kept apart here.
# How the values were obtained:
# [1] = Biocompatibility study, subcutaneous implantation in mice; settings: mouse, in vivo, sc
# Experimental: To examine tissue responses and in vivo degradation of these implants, unloaded 20% DO implants (P4) were used and examined histological sections and polymer properties over a period of 8 months after subcutaneous implantation. Implants of ˜10 to 15 mg were implanted in the subdermal layer of 16 mice. […] implants were extracted every two months; half of the implants were used for histological examination while the other half were used to characterize the polymer using GPC and NMR (FIGS. 15A and 15B). […] This decrease in Mw (73%) during the first four months is slightly less than observed in vitro degradation, where there was an 84% decrease in Mw after four months of incubation in PBS buffer at 37° C. […] This trend can likely be attributed to the highly degradable PDO polymeric segments of the copolymer. In terms of structural integrity of the implants, the implants appeared intact at 8 months and were firm enough to be picked up by tweezers without damage to the implant.
# [2] = In vitro drug release from poly(EB-co-DO) implants with mathematical diffusion model; format: physicochemical; settings: for Diffusion Coefficient: 28 % Loading, P4 (37k, 20% DO) implants
# Experimental: Drug-loaded poly(EB-co-DO) implants (1 cm long, 2.4 mm diameter, 50 mg) were individually incubated in 1 mL of PBS solution (pH=7.4) containing 3% methyl-beta-cyclodextrin (M-β-CD) at 37° C. At selected time points, the buffer solution was completely replaced with fresh solution of the same composition. The collected buffer solutions, in which the implant had been continuously and completely bathed for a period of time, were flash frozen and lyophilized. High-performance liquid chromatography (HPLC) was then used to determine the representative drug loading of implants in each group.
# The samples were then centrifuged at 3000 rpm for 5 min to draw out any salts and M-β-CD. The supernatant was passed through 0.22 um syringe filters before being analyzed by HPLC for drug content.
# An Agilent column (883995-906, ZORBAX StableBond 300 C8, 4.6×150 mm, 5 μm) and Shimadzu HPLC system (LC-2030C) with a UV-Vis detector was used for drug quantitation. […] Initial solvent B concentration was set at 5% and allowed to increase to 100% by the 5th minute. Flow was maintained for 5 min at this level before dropping to 5% after 12 min, which was maintained until the end of the run at 13 minutes. For analysis of DTG drug release, Solvent A was 0.1% TFA in HPLC grade water, and solvent B was 100% methanol. Initial solvent B concentration was set at 55% and increased to 60% for the 6-7th minute before being brought back down to 55% for the 7-10th minute. All three drugs were detected using a UV detector at a wavelength of 240 nm. […] A volume of 45 μl was injected for each sample run.
# Fick's second law of diffusion appropriately models drug transport across polymeric matrixes by proportionally relating the diffusion rate at time, t, to the concentration gradient of drug in the implant, ∂C/∂r. As shown in the equation below (1), a one-dimensional, radial release from our cylindrical implants was adopted, with a constant drug diffusion coefficient, D.
# The solution for the above partial differential equation requires specification of a set of initial conditions and boundary conditions. For the initial condition (t=0), a homogenous and uniform concentration of drug throughout the implant was adopted, C=C0. A symmetry boundary condition is further applied at the center of the implant (r=0) as flux across the plane of symmetry is zero, ∂C/∂r=0. Lastly, a perfect-sink boundary condition is applied at the surface of implant (r=R), C=0. […] In vitro release, then, is determined from the mass of drug in the implant at each time point subtracted from initial mass of drug within the implant (Co*V). Lastly, the diffusion coefficient is determined by fitting the cumulative drug release profile to data from in vitro drug release experiments and minimizing root mean squared error (RMSE).
# [3] = cited from earlier work
# [4] = cited from earlier work; remark: listed apart in the source
# HIV-1 [5] = assay: HIV cellular assays (HIV cell culture), antiviral potency
# [6] = rodents; cited from earlier work
# [7] = Pharmacokinetic studies for implants and NPs in Hu-PBL mice; format: in vivo; settings: for concentration at 42 d / concentration at 56 d / AUC(0-t): NSG (NOD.Cg-Prkdcscid Il2rgtm1Wjl/SzJ), Hu-PBL, mouse; for concentration at 42 d / concentration at 56 d: plasma; for concentration at 42 d: intraperitoneal, day 42; for AUC(0-t): serum
# Experimental: NOD.Cg-Prkdcscid Il2rgtm1 Wjl/SzJ (NSG) mice were purchased from the Jackson Laboratory (Bar Harbor, ME) and bred and maintained at Yale University (New Haven, CT) according to guidelines established by the Institutional Animal Committee. All experiments were performed according to protocols approved by the Institutional Review Board and the Institutional Animal Care and Use Committee of Yale University. NSG-Hu-PBL mice were engrafted. Briefly, 10×10^6 peripheral blood mononuclear cells (PBMC), purified by Ficoll density gradient centrifugation of healthy donor blood (obtained from the New York Blood Bank) were injected intraperitoneally in a 200 μl volume into 6- to 12-week-old NSG mice (Jackson Laboratory), using a 1 cm^3 syringe and 25-gauge needle. Mice were retro-orbitally bled to collect 70-100 μl of blood.
# Two NSG mice were injected intraperitoneally (i.p.) with Compound I-NP (190 mg/kg) and EFdA (10 mg/kg) suspended in sterile saline solution. The blood samples were collected at predetermined time points from the ocular venous plexus by retro-orbital venipuncture and used for subsequent HPLC analysis.
# Mice were anesthetized by intraperitoneal injection of ketamine (80 mg/kg) and xylazine (12 mg/kg) in PBS (10 ml/kg) based on individual mouse body weight. After anesthetizing, approximately 1-2 cm square of the dorsal skin was shaved using an electric hair clipper, the area was cleaned with ethanol and disinfected with betadine. Using a sterile disposable surgical blade, an incision of 4-5 mm was made through the skin. Gently, 2 cm×3 cm subcutaneous pockets were created with forceps and implants loaded with EFdA and Compound I were co-inserted at the same site. The opening was sutured using absorbable sutures followed by subcutaneous administration of 0.05 mg/kg buprenorphine. The animals were kept warm using the temperature-controlled heating pads until they regained consciousness. Toxicity was evaluated by clinical observations, eageside observations (twice daily), and body weight (at least weekly).
# To determine dose-dependent serum agent concentrations, in vivo pharmacokinetics of Compound I and EFdA implants, and Compound I-NP and EFdA-NP were investigated in Hu-PBL mice. The blood samples were collected at predetermined time points from the ocular venous plexus by retro orbital venipuncture and serum was used for subsequent HPLC analysis.
# [8] = molecular target: T1, human mitochondrial DNA polymerase (Homo sapiens, UniProt P54098); settings: previous studies; cited from earlier work
# T1 sequence (P54098 1-1239): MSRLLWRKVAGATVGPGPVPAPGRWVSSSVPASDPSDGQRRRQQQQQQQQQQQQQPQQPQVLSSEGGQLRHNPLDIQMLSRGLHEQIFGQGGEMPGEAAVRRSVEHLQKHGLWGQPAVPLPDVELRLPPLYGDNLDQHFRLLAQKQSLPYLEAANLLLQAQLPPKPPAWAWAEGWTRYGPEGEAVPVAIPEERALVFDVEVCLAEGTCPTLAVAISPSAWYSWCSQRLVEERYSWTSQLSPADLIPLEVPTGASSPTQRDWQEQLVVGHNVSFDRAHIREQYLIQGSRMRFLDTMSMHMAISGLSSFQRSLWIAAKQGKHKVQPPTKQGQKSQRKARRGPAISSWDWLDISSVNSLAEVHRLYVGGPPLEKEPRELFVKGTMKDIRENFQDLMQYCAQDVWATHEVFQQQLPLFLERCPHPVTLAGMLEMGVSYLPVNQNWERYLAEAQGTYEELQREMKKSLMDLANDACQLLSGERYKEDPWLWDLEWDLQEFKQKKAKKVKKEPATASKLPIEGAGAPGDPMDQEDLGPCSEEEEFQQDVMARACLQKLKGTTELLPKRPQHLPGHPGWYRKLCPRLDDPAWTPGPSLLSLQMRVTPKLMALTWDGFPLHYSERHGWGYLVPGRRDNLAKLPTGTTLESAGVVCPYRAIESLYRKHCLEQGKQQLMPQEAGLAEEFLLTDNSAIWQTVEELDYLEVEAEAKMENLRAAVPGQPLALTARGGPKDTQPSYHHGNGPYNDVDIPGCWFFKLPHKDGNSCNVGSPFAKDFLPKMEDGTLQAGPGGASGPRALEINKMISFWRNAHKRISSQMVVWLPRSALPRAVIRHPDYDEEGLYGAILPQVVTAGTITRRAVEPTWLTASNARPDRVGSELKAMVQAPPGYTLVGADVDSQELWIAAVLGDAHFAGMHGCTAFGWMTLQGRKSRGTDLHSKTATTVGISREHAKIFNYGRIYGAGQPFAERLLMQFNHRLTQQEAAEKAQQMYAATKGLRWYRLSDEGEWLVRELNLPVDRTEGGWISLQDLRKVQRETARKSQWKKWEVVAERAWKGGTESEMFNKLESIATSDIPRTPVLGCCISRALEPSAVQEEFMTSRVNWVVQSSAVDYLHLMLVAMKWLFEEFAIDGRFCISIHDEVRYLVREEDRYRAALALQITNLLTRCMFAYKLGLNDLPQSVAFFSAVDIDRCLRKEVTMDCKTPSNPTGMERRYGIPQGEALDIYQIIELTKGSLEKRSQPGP
# HIV-1 [9] = settings: week 48, with FTC/TDF or ABC/3TC; cited from earlier work
compound,measurement,setting,value
poly(ethylene brassylate-co-dioxanone) [poly(EB-co-DO) implants],tolerability after subcutaneous implantation,[1],well tolerated
"C[C@@H]1CCO[C@H]2Cn3cc(C(=O)NCc4ccc(F)cc4F)c(=O)c(O)c3C(=O)N12 [DTG, dolutegravir]",Diffusion Coefficient,[2],1.7 × 10^−9 cm^2/sec
same,burst release rates compared to DEX,"[2]; 28% loading, P4 implants",three-fold reduction in burst release rates
same,cumulative in vitro release compared to DEX from comparable implants,"[2]; 28% loading, P4 implants",slower cumulative release
"C[C@@H]1C[C@H]2[C@@H]3CCC4=CC(=O)C=C[C@]4(C)[C@@]3(F)[C@@H](O)C[C@]2(C)[C@@]1(O)C(=O)CO [DEX, dexamethasone]",diffusion coefficient in porous EVAc implants,[3]; 35% DEX loading,2.0×10^−10 cm^2/sec
same,diffusion coefficient in water,"[3]; radiolabeled DEX in saline, 37° C.",5.2×10^−6 cm^2/sec
same,log P,[4],1.6-1.9
same,Diffusion Coefficient,[2],3.7 × 10^−9 cm^2/sec
"C#C[C@]1(CO)O[C@@H](n2cnc3c(N)nc(F)nc32)C[C@@H]1O [EFdA, 4′-Ethynyl-2-fluoro-2′-deoxyadenosine]",pEC50,"HIV-1 [5]; Human immunodeficiency virus 1, read-out: effective concentrations (EC50)",8.72
same,IC90 / EC90 in HIV cell culture,HIV-1 [5]; calculated from EC50 with Hill slope of 1,17.1 nM
same,time of sustained levels of agent from implants,[6],up to 6 months
same,increase in serum concentration,"[7]; NPs, day 14-post infection",21%
same,decline in serum concentration after day 21,"[7]; NPs, over the next three weeks",two-fold decline
same,clearance,"[7]; NPs, single i.p. dose, co-administered",1.2 mL/h/kg
same,concentration at 42 d,"[7]; NPs, read-out: plasma level maintained at end of experiment",≥ 4000 ng/mL
same,concentration at 42 d,"[7]; NPs, read-out: plasma level maintained at end of experiment (molar)",≥ 13 µM
same,concentration at 56 d,"[7]; subcutaneous, implants, day 56, read-out: sustained plasma concentration at end of experiment",7500 ng/mL
same,concentration at 56 d,"[7]; subcutaneous, implants, day 56, read-out: sustained plasma concentration at end of experiment (molar)",25 µM
same,AUC(0-t),"[7]; ip, NPs, single i.p. dose, co-administered",6980 µg·h/mL
same,AUC(0-t),"[7]; subcutaneous, co-implanted poly(PDL-co-DO) implants, 56 d",9130 µg·h/mL
same,serum level fold higher than the cellular EC50,"[7]; implants, day 14","11,000 fold"
same,fold decrease in serum concentration compared to day 28,"[7]; implants, day 35 post-implantation",5 fold
same,plasma concentration fold above the EC90,"[7]; implants, day 56",~1600 fold
same,substrate for human mitochondrial DNA polymerase,[8],poor substrate
Cn1c(Cn2ccc(C(F)(F)F)c(Oc3cc(Cl)cc(C#N)c3)c2=O)n[nH]c1=O [doravirine],patients with plasma HIV-1 RNA of less than 50 copies/mL,HIV-1 [9],84%
